In ChEMBL document CHEMBL1126549, “A novel series of selective, non-peptide inhibitors of angiotensin II binding to the AT2 site” (J Med Chem, 1993):

How the values were obtained:
[1] = target: T1, Angiotensin II receptor (AT-1) type-1 (Rattus norvegicus, UniProt P29089+P25095); assay: Binding affinity towards Angiotensin II receptor, type 1 in rat isolated adrenal cortical microsomes; design: species or system Microsome
T1 sequence (P29089 whole entry): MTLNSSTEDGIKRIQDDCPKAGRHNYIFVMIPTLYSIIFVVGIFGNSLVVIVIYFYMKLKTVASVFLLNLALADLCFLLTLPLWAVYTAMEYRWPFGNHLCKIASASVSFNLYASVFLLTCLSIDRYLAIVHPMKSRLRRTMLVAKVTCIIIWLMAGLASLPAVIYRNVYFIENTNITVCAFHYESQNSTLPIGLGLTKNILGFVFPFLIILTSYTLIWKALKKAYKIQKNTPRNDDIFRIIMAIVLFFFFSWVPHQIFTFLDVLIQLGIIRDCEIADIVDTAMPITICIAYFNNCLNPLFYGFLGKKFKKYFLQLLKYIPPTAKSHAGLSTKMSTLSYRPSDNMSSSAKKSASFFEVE
T1 sequence (P25095 whole entry): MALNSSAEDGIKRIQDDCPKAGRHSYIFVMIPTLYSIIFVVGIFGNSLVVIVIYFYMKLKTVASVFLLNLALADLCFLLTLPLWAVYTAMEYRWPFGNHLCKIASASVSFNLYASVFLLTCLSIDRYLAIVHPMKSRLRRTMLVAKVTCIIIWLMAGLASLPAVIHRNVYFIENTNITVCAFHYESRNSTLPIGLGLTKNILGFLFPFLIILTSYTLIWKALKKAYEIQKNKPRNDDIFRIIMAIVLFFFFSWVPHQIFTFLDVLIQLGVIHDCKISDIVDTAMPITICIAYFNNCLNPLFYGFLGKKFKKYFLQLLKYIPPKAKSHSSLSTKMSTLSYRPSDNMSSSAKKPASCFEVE

[2] = target: T2, Type-2 angiotensin II receptor (Rattus norvegicus, UniProt P35351); assay: Binding affinity towards Angiotensin II receptor, type 2 in rat isolated adrenal medullary microsomes; design: species or system Adrenal medulla, Microsome
T2 sequence (P35351 whole entry): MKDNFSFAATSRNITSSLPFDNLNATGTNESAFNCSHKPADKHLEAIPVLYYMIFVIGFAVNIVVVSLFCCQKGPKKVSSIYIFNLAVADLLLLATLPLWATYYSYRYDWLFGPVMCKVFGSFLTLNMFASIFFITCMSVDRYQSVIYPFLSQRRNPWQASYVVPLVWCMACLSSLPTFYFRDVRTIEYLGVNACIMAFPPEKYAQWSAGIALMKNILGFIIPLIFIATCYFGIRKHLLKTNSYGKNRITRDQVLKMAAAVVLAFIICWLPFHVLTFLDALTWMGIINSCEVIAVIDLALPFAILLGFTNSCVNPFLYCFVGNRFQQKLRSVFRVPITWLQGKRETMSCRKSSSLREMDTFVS

[3] = target: T2, Type-2 angiotensin II receptor; assay: Binding affinity towards angiotensin II AT2 receptor subtype was determined using rat isolated adrenal […] microsomes

SMILES | IC50 [1] [nM] | IC50 [2] [nM] | IC50 [3] [nM]
COC(=O)C1Cc2c(Cc3ccc(OC)cc3)cccc2CN1C(=O)C(c1ccccc1)c1ccccc1 (centres undefined) | > 10000 | > 10000 | 
O=C(O)C1Cc2cc(Oc3ccccc3)ccc2CN1C(=O)C(c1ccccc1)c1ccccc1 (centres undefined) | > 10000 | 60 | 
COC(=O)C1Cc2c(cccc2-c2ccc(OC)cc2)CN1C(=O)C(c1ccccc1)c1ccccc1 (centres undefined) | > 10000 | 2000 | 
CCCCCc1cccc2c1CC(C(=O)O)N(C(=O)C(c1ccccc1)c1ccccc1)C2 (centres undefined) | > 10000 | 40 | 
O=C(O)C1Cc2ccccc2CN1C(=O)C(c1ccccc1)c1ccccc1 (centres undefined) | > 30000 | 2500 | 
COC(=O)C1Cc2c(cccc2-c2ccccc2)CN1C(=O)C(c1ccccc1)c1ccccc1 (centres undefined) | > 10000 | 2000 | 
COc1ccc(Cc2cccc3c2CC(C(=O)O)N(C(=O)C(c2ccccc2)c2ccccc2)C3)cc1 (centres undefined) | 7000 | 90 | 
O=C(O)C1Cc2cc(-c3ccccc3)ccc2CN1C(=O)C(c1ccccc1)c1ccccc1 (centres undefined) | > 10000 | 30 | 
O=C(O)C1Cc2cc(O)ccc2CN1C(=O)C(c1ccccc1)c1ccccc1 (centres undefined) | > 10000 | 600 | 
CN(C(=O)N1Cc2ccc(Oc3ccccc3)cc2CC1C(=O)O)c1ccccc1 (centres undefined) | > 10000 | 300 | 
O=C(O)C1Cc2c(Cc3ccccc3)cccc2CN1C(=O)C(c1ccccc1)c1ccccc1 (stereo in doubt; 21) | 10000 | 90 | 
COC(=O)C1Cc2c(Cc3ccccc3)cccc2CN1C(=O)C(c1ccccc1)c1ccccc1 (centres undefined) | > 10000 | 7000 | 
COc1ccc(Cc2cccc3c2CC(C(=O)O)N(C(=O)N(c2ccccc2)c2ccccc2)C3)cc1 (centres undefined) | 10000 | 200 | 
COc1ccc(-c2cccc3c2CC(C(=O)O)N(C(=O)C(c2ccccc2)c2ccccc2)C3)cc1C (centres undefined) | > 10000 | 70 | 
COC(=O)C1Cc2c(C)cccc2CN1C(=O)C(c1ccccc1)c1ccccc1 (centres undefined) | > 10000 | 5000 | 
Cc1cccc2c1CC(C(=O)O)N(C(=O)C(c1ccccc1)c1ccccc1)C2 (centres undefined) | > 10000 | 300 | 
COc1ccc(-c2cccc3c2CC(C(=O)O)N(C(=O)C(c2ccccc2)c2ccccc2)C3)cc1 (centres undefined) | 10000 | 40 | 
COc1ccc(Cn2cnc3c2C[C@@H](C(=O)O)N(C(=O)C(c2ccccc2)c2ccccc2)C3)cc1C |  |  | 10
O=C(O)C1Cc2c(Cc3ccccc3)cccc2CN1C(=O)C(c1ccccc1)c1ccccc1 (stereo in doubt; 22) |  | 70 | 
COc1ccc(Cc2cccc3c2CC(C(=O)O)N(C(=O)N(C)c2ccccc2)C3)cc1 (centres undefined) | > 10000 | 400 | 
O=C(O)C1Cc2c(Cc3ccccc3)cccc2CN1C(=O)C(c1ccccc1)c1ccccc1 (stereo in doubt; 23) | 4000 | 80 | 
COc1ccc(Cc2cccc3c2CC(C(=O)O)N(C(=O)C(c2ccccc2)c2ccccc2)C3)cc1C (centres undefined) | 5000 | 100 | 
O=C(O)C1Cc2c(cccc2-c2ccccc2)CN1C(=O)C(c1ccccc1)c1ccccc1 (centres undefined) | > 10000 | 40 | 
